In US6465654B2, “Process for preparing 1-substituted, 2-substituted 1H-imidazo[4, 5-c]quinoline-4-amines” (3M Innovative Properties Company, priority 1991, dated 2002):

Tests used:
interferon-α = test: Interferon-α induction in human cells, PBM; type: cell-based; details: 24 hours
interferon = test: Interferon induction in mice; type: in vivo; details: mouse serum
Protocol: One hour later blood samples are withdrawn from the first group. The samples are pooled then centrifuged. The serum is removed from the centrifuge tube, split into two portions, then placed in freezing vials and maintained at −70° C. until analysis. This procedure is repeated at 2 hours with the second group of mice and at 4 hours with the third group of mice. Samples are assayed as described above in connection with the analysis of interferon induction in human cells. The results are expressed in the table below as α/β reference units/mL based on the value obtained for a mouse MU-1-IF standard. Results are shown in the table below wherein results designated as “<” a certain number indicate that interferon was not detectable in amounts above the lower sensitivity level of the assay.

| Compound | Interferon-α induction (interferon-α; dose concentration 0.01 μg/mL) | Interferon-α induction (interferon-α; dose concentration 0.05 μg/mL) | Interferon-α induction (interferon-α; dose concentration 0.10 μg/mL) | Interferon-α induction (interferon-α; dose concentration 0.50 μg/mL) | Interferon-α induction (interferon-α; dose concentration 1.0 μg/mL) | Interferon-α induction (interferon-α; dose concentration 5.0 μg/mL) | Interferon induction in mice (interferon; oral 0.3 mg/kg, 1 hr) | Interferon induction in mice (interferon; oral 0.3 mg/kg, 2 hr) [Reference Units/mL] | Interferon induction in mice (interferon; oral 0.3 mg/kg, 4 hr) | Interferon induction in mice (interferon; oral 1 mg/kg, 1 hr) [Reference Units/mL] | Interferon induction in mice (interferon; oral 1 mg/kg, 2 hr) [Reference Units/mL] | Interferon induction in mice (interferon; oral 1 mg/kg, 4 hr) | Interferon induction in mice (interferon; oral 3 mg/kg, 1 hr) | Interferon induction in mice (interferon; oral 3 mg/kg, 2 hr) | Interferon induction in mice (interferon; oral 3 mg/kg, 4 hr) | Interferon induction in mice (interferon; oral 10 mg/kg, 1 hr) [Reference Units/mL] | Interferon induction in mice (interferon; oral 10 mg/kg, 2 hr) [Reference Units/mL] | Interferon induction in mice (interferon; oral 10 mg/kg, 4 hr) |
| --- | --- | --- | --- | --- | --- | --- | --- | --- | --- | --- | --- | --- | --- | --- | --- | --- | --- | --- |
| 1-Butyl-2-methoxyethyl-1H-imidazo[4,5-c]quinolin-4-amine [Example 115] | 91 α Reference Units/mL | 96 α Reference Units/mL | 120 α Reference Units/mL | 190 α Reference Units/mL | 190 α Reference Units/mL | 240 α Reference Units/mL | ˜380 Reference Units/mL | 2500 | ˜360 Reference Units/mL | 1400 | 2900 | ˜310 Reference Units/mL | 2200 Reference Units/mL | 5300 Reference Units/mL | ˜310 Reference Units/mL | 5600 | 5300 | 870 Reference Units/mL |
| 4-Amino-N-hydroxyethyl-N-methyl-1-phenylmethyl-1H-imidazo[4,5-c]quinoline-2-methanamine Hemihydrate [Example 30] | – | – | <4 α Reference Units/mL | <4 α Reference Units/mL | <4 α Reference Units/mL | 72 α Reference Units/mL | <120 Reference Units/mL | <120 | <120 Reference Units/mL | <120 | <120 | <120 Reference Units/mL | <120 Reference Units/mL | <120 Reference Units/mL | <120 Reference Units/mL | <120 | 600 | <120 Reference Units/mL |
| 4-Amino-α-butyl-1-(2-methylpropyl)-1H-imidazo[4,5-c]quinoline-2-methanol Hemihydrate [Example 60] | – | – | 1700 α Reference Units/mL | 430 α Reference Units/mL | 570 α Reference Units/mL | 570 α Reference Units/mL | 120 Reference Units/mL | 870 | ≦56 Reference Units/mL | 290 | 1500 | 120 Reference Units/mL | 380 Reference Units/mL | 870 Reference Units/mL | 290 Reference Units/mL | 870 | 3400 | 1100 Reference Units/mL |
| Nc1nc2ccccc2c2c1nc(CN1CCOCC1)n2Cc1ccccc1 [Example 29, 2-Morpholinomethyl-1-phenylmethyl-1H-imidazo-[4,5-c]quinolin-4-amine] | – | – | <5.4 α Reference Units/mL | 440 α Reference Units/mL | 1000 α Reference Units/mL | 580 α Reference Units/mL | <45 Reference Units/mL | <45 | <45 Reference Units/mL | <45 | <45 | <45 Reference Units/mL | <45 Reference Units/mL | <45 Reference Units/mL | <45 Reference Units/mL | <45 | <45 | <45 Reference Units/mL |
| CC(C)Cn1c(C(O)c2ccc(Cl)cc2)nc2c(N)nc3ccccc3c21 (stereo not drawn) [Example 55, 4-Amino-α-(4-chlorophenyl)-1-(2-methylpropyl)-1H-imidazo[4,5-c]quinoline-2-methanol] | – | – | <4 α Reference Units/mL | 1500 α Reference Units/mL | 1500 α Reference Units/mL | 490 α Reference Units/mL | – | – | – | – | – | – | – | – | – | – | – | – |
| CCCCC(c1nc2c(N)nc3ccccc3c2n1CC(C)C)N1CCOCC1 (centres unmarked) [Example 62, 2-[1-(1-Morpholino)pentyl]1-1-(2-methylpropyl)-1H-imidazo[4,5-c]quinolin-4-amine] | – | – | <5 α Reference Units/mL | <5 α Reference Units/mL | 31 α Reference Units/mL | 760 α Reference Units/mL | <56 Reference Units/mL | <56 | <56 Reference Units/mL | <56 | 97 | <56 Reference Units/mL | 220 Reference Units/mL | 870 Reference Units/mL | 160 Reference Units/mL | 380 | 1100 | 380 Reference Units/mL |
| CC(=O)OC(C)c1nc2c(N)nc3ccccc3c2n1CC(C)C.O (stereo not drawn) [Example 69, 4-Amino-α-methyl-1-(2-methylpropyl)-1H-imidazo[4,5-c]quinoline-2-methyl Acetate Hydrate] | <6.4 α Reference Units/mL | <6.4 α Reference Units/mL | 1000 α Reference Units/mL | 680 α Reference Units/mL | 390 α Reference Units/mL | 900 α Reference Units/mL | <150 Reference Units/mL | <150 | <150 Reference Units/mL | <150 | <150 | <150 Reference Units/mL | ≦270 Reference Units/mL | ≦150 Reference Units/mL | <150 Reference Units/mL | 1000 | 1000 | ≦340 Reference Units/mL |
| CCOCc1nc2c(N)nc3ccccc3c2n1CCC(C)C.Cl [Example 109, 2-Ethoxymethyl-1-(3-methylbutyl)-1H-imidazo[4,5-c]quinolin-4-amine Hydrochloride] | <1.4 α Reference Units/mL | 1000 α Reference Units/mL | 1000 α Reference Units/mL | 97 α Reference Units/mL | 83 α Reference Units/mL | 78 α Reference Units/mL | – | – | – | – | – | – | – | – | – | – | – | – |
| COCc1nc2c(N)nc3ccccc3c2n1CC(C)(C)O [Example 111, 4-Amino-α,α-dimethyl-2-methoxymethyl-1H-imidazo[4,5-c]quinoline-1-ethanol] | 190 α Reference Units/mL | 65 α Reference Units/mL | 65 α Reference Units/mL | 49 α Reference Units/mL | 55 α Reference Units/mL | 61 α Reference Units/mL | – | – | – | – | – | – | – | – | – | – | – | – |
